Key:
human CTPS1 = target: T1, human CTPS1 (Homo sapiens, UniProt P17812); assay: Human CTPS1 enzyme inhibition (ADP-Glo Max assay); format: biochemical; details: 25° C., read-out: Human CTPS1 Enzyme Inhibition IC50, grouped by potency range
T1 construct: FLAG (GG linker + DYKDDDDK); His8 (GG linker + HHHHHHHH); purchased Proteros biostructures GmbH
T1 sequence (P17812 1-591): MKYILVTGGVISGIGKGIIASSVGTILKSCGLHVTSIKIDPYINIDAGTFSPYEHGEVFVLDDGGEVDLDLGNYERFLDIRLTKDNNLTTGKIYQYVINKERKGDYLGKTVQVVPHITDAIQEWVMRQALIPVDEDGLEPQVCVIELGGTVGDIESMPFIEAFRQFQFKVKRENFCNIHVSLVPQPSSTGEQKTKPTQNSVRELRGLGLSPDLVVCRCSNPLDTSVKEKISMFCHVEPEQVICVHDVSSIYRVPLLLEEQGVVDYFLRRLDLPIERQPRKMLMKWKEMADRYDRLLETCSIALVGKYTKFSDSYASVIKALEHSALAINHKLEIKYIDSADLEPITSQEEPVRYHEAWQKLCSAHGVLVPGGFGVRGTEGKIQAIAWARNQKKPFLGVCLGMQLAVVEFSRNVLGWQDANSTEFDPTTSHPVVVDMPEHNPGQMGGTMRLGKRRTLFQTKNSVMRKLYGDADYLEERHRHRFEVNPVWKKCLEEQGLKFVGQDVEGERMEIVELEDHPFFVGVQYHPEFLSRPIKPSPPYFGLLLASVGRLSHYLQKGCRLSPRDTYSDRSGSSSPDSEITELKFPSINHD
Method: The enzyme inhibitory activities of compounds invented against the target of interest were determined using the ADP-Glo™ Max assay (Promega, UK). Assays for human CTPS1 were performed in 1× assay buffer containing 50 mM Tris, 10 mM MgCl2, 0.01% Tween-20, pH to 8.0 accordingly. Finally, immediately before use, L-cysteine was added to the 1× assay buffer to a final concentration of 2 mM. All reagents are from Sigma-Aldrich unless specified otherwise.
Human full length active C-terminal FLAG-Hiss-tag CTPS1 (UniProtKB—P17812, CTPS1[1-591]-[…] (CTPS1[1-591]-SEQ ID NO: 1)) was obtained from Proteros biostructures GmbH.
3× human CTPS1 protein was prepared in 1× assay buffer to the final working protein concentration required for the reaction. A 2 uL volume per well of 3× human CTPS1 protein was mixed with 2 uL per well of 3× test compound (compound prepared in 1× assay buffer to an appropriate final 3× compound concentration respective to the concentration response curve designed for the compounds under test) for 10 minutes at 25° C. The enzymatic reaction was then initiated by addition of a 2 uL per well volume of a pre-mixed substrate mix (UltraPure ATP from ADP-GIo™ Max kit (0.31 mM), GTP (0.034 mM), UTP (0.48 mM) and L-glutamine (0.186 mM)) and the mixture was incubated for an appropriate amount of time within the determined linear phase of the reaction at 25° C. under sealed plate conditions with constant agitation at 500 revolutions per minute (rpm). ADP-GIo™ Max reagent was added for 60 minutes (6 μL per well) and subsequently ADP-GIo™ Max development reagent was added for 60 minutes (12 uL per well) prior to signal detection in a microplate reader (EnVision® Multilabel Reader, Perkin Elmer). Following each reagent addition over the course of the assay, assay plates were pulse centrifuged for 30 seconds at 500 rpm.
In all cases, the enzyme converts ATP to ADP and the ADP-Glo™ Max reagent subsequently depletes any remaining endogenous ATP in the reaction system. The ADP-Glo™ Max detection reagent converts the ADP that has been enzymatically produced back into ATP and using ATP as a substrate together with luciferin for the enzyme luciferase, light is generated which produces a detectable luminescence. […] The percentage inhibition produced by each concentration of compound was calculated using the equation shown below: […]
(§1) Percentage inhibition was then plotted against compound concentration, and the 50% inhibitory concentration (IC50) was determined from the resultant concentration-response curve.

Human CTPS1 Versus CTPS2 = assay: RapidFire/MS-based enzyme selectivity assay, human CTPS1 versus CTPS2; format: biochemical; details: RapidFire/MS IC50s
Method: Human CTPS1 Versus CTPS2 Selectivity Assessment by RapidFire/MS Analysis.
The enzyme inhibitory activities against each target isoform of interest may be determined for the compounds of the invention using an optimised RapidFire high-throughput mass spectrometry (RF/MS) assay format. RF/MS assays for both human CTPS1 and CTPS2 may be performed in assay buffer consisting of 50 mM HEPES (Merck), 20 mM MgCl2, 5 mM KCl, 1 mM DTT, 0.01% Tween-20, pH to 8.0 accordingly. Human full-length active C-terminal FLAG-His-tag CTPS1 (UniProtKB—P17812, CTPS1[1-591]-[…] (CTPS1[1-591]-SEQ ID NO: 1)) may be obtained from Proteros biostructures GmbH. Human full length active C-terminal FLAG-His-Avi tagged CTPS2 (UniProtKB—Q9NRF8, CTPS2 [1-586]—[…] (CTPS2 [1-586]-SEQ ID NO: 2)) may be obtained from Harker Bio.
Human CTPS (1 or 2) protein may be prepared in 1× assay buffer to the final working protein concentration required for the reaction. A 2 uL volume per well of 2×CTPS (1 or 2) protein may be mixed with 40 nL of compound using acoustic (ECHO) delivery and incubated for 10 minutes at 25° C. Each isoform enzymatic reaction may be subsequently initiated by addition of 2 uL per well of a 2× substrate mix in assay buffer. For hCTPS1: ATP (0.3 mM), UTP (0.2 mM), GTP (0.07 mM) and L-glutamine (0.1 mM). For hCTPS2: ATP (0.1 mM), UTP (0.04 mM), GTP (0.03 mM) and L-glutamine (0.1 mM). Each mixture may be incubated for an appropriate amount of time per isoform within the determined linear phase of the reaction at 25° C. A 60 uL volume of stop solution (1% formic acid with 0.5 uM ^13C9-^15N3-CTP in H2O) may be added and the plate immediately heat-sealed and centrifuged for 10 minutes at 4,000 rpm. Following centrifugation, plates may be loaded onto the Agilent RapidFire microfluidic solid phase extraction system coupled to an API4000 triple quadrupole mass spectrometer (RF/MS) for analysis.
In all cases, the enzyme converts UTP to CTP. Highly specific and sensitive multiple reaction monitoring (MRM) MS methods may be optimised for the detection of the enzymatic reaction product, CTP, and the stable isotope labelled product standard ^13C-^15N-CTP. Readout for data analysis may be calculated as the ratio between the peak area of the product CTP and the internal standard […]. For data reporting, the following equation may be used: […]
For each screening plate, the means of the negative (DMSO) and positive control values were used for the calculation of the respective assay window (S/B) and Z′ values. The median of the respective control values was used for calculation of percent inhibition according to the following equation: […]
as §1
Fold selectivity between CTPS1 and CTPS2 was subsequently calculated according to the following equation: […]

Row | SMILES | IC50 (human CTPS1) [nM] | Fold selectivity between CTPS1 and CTPS2 (CTPS1) (Human CTPS1 Versus CTPS2)
1 | CCOc1cncc(-c2ccc(C(=O)NC3(c4ccnc(NS(=O)(=O)C5CC5)n4)CCOCC3)nc2)n1 [P249, N-(4-(2-(cyclopropanesulfonamido)pyrimidin-4-yl)tetrahydro-2H-pyran-4-yl)-5-(6-ethoxypyrazin-2-yl)picolinamide] | 100 to 1000 | +++ (>60 fold (+++))
2 | CCOc1cncc(-c2ccc(NC(=O)C3(c4ccnc(NS(=O)(=O)CC(C)C)n4)CCOCC3)nc2)n1 [P250, N-(5-(6-ethoxypyrazin-2-yl)pyridin-2-yl)-4-(2-((2-methylpropyl)sulfonamido)pyrimidin-4-yl)tetrahydro-2H-pyran-4-carboxamide] | 100 to 1000 | +++ (>60 fold (+++))
3 | O=C(Nc1ccc(-c2cncc(C3CC3)n2)cn1)C1(c2ccnc(NS(=O)(=O)C3CC3)n2)CCOCC1 [P252, 4-(2-(cyclopropanesulfonamido)pyrimidin-4-yl)-N-(5-(6-cyclopropylpyrazin-2-yl)pyridin-2-yl)tetrahydro-2H-pyran-4-carboxamide] | ≤ 100 | +++ (>60 fold (+++))
4 | CCOc1cncc(-c2ccc(NC(=O)C3(c4nccc(NS(=O)(=O)C5CC5)n4)CCN(C)CC3)nc2)n1 [P319, 4-(4-(cyclopropanesulfonamido)pyrimidin-2-yl)-N-(5-(6-ethoxypyrazin-2-yl)pyridin-2-yl)-1-methylpiperidine-4-carboxamide] | ≤ 100 | +++ (>60 fold (+++))

Further lines, results first:

Row | IC50 (human CTPS1) [nM] | Fold selectivity between CTPS1 and CTPS2 (CTPS1) (Human CTPS1 Versus CTPS2) | SMILES
5 | 100 to 1000 | +++ (>60 fold (+++)) | CCOc1cncc(-c2ccc(NC(=O)C3(c4ccnc(NS(=O)(=O)C5CCCC5)n4)CCOCC3)nc2)n1 [P245, 4-(2-(cyclopentanesulfonamido)pyrimidin-4-yl)-N-(5-(6-ethoxypyrazin-2-yl)pyridin-2-yl)tetrahydro-2H-pyran-4-carboxamide]
6 | 100 to 1000 | +++ (>60 fold (+++)) | CCOc1cncc(-c2ccc(NC(=O)C3(c4ccnc(NS(=O)(=O)C(C)(C)C)n4)CCOCC3)nc2)n1 [P246, 4-(2-((1,1-dimethylethyl)sulfonamido)pyrimidin-4-yl)-N-(5-(6-ethoxypyrazin-2-yl)pyridin-2-yl)tetrahydro-2H-pyran-4-carboxamide]
7 | 100 to 1000 | +++ (>60 fold (+++)) | CCOc1cncc(-c2ccc(NC(=O)C3(c4ccnc(NS(=O)(=O)C5(C)CC5)n4)CCOCC3)nc2)n1 [P247, N-(5-(6-ethoxypyrazin-2-yl)pyridin-2-yl)-4-(2-((1-methylcyclopropane)-1-sulfonamido)pyrimidin-4-yl)tetrahydro-2H-pyran-4-carboxamide]
8 | ≤ 100 | ++ (>30-60 fold (++)) | O=C(Nc1ccc(-c2cncc(Cl)c2)cn1)C1(c2ccnc(NS(=O)(=O)C3CC3)n2)CCOCC1 [P253, N-(5′-chloro-[3,3′-bipyridin]-6-yl)-4-(2-(cyclopropanesulfonamido)pyrimidin-4-yl)tetrahydro-2H-pyran-4-carboxamide]

Reference: patent publication US12466810B2, “N-(5-(6-ethoxypyrazin-2-yl)pyridin-2-yl)-4-(2-(methylsulfonamido)pyrimidin-4-yl) tetrahydro-2H-pyran-4-carboxamide derivatives and related compounds as human CTPS1 inhibitors for the treatment of proliferative diseases” (Step Pharma S.A.S., priority 2019, dated 2025)
